Inhibition data for 12 molecules are collected here from patent publication US20260297081A1, “COMPOUNDS AND METHODS OF TREATING CANCERS” (Cullgen Inc., priority 2023, published 2026).

The target of this experiment is CDK4 (Homo sapiens, UniProt P11802+Q16531). Put plainly: CDK4 percentage degradation in Calu-1 cells (Table 6). It counts as cell-based. Details: Cells that express cyclin D1-3 and CDK4/6 proteins were treated with heterobifunctional compounds; endogenous in cells; host or cells: Calu-1. The note with it: 16 hours; for inhibition at 0.04 µM: 40 nM; for inhibition at 0.2 µM: 200 nM. The method, then:
Calu-(cells were treated with heterobifunctional compounds at 40 nM or 200 nM for 16 hours A: protein percentage degradation […]; B: protein percentage degradation <80%, and ≥50%; C: protein percentage degradation <50%, and ≥30%; D; protein percentage degradation […]; -, data not available.
Calu-1, T47D, MCF7, HCC1428 and other cells were cultured at 37° C. with 5% CO2 in RPMI 1640 or DMEM medium supplemented with 10% fetal bovine serum. Cells were authenticated using the short tandem repeat (STR) assays. Mycoplasma test results were negative. For palbo-resistant cell model, T47D cells were cultured long-term to resistance in the presence of 1 μM Palbociclib. Cells were deemed resistant when growing in the presence of Palbo at the same rate as parental cells.
Cultured cells were washed with cold PBS once and lysed in cold RIPA buffer supplemented with protease inhibitors and phosphatase inhibitors (Beyotime Biotechnology). The solutions were then incubated at 4 ? for 30 min with gentle agitation to fully lysed cells. Cell lysates were centrifuged at 13,000 rpm for 10 min at 4 ? and pellets were discarded. Total protein concentrations in the lysates were determined following BCA assays (Beyotime Biotechnology). Cell lysates were mixed with Laemmli loading buffer and heated at 99° C. for 5 min. Proteins were resolved on SDS-PAGE and visualized using Western ECL Substrate kits on a ChemiDoc MP Imaging system (Bio-Rad). Protein bands were quantitated using the Image Lab software provided by Bio-Rad.

Where only a bound is given, the exact number is not on record here.

Sequence of CDK4 (P11802 2-303 limits assumed): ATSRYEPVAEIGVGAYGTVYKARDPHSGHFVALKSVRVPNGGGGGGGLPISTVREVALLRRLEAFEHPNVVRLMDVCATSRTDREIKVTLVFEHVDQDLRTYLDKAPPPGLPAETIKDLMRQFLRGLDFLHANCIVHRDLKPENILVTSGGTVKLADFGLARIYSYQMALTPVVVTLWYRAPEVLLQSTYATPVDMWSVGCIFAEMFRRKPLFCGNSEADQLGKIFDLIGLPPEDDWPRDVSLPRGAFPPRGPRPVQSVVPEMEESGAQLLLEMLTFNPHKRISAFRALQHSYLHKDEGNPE
Sequence of CDK4 (P24385 whole entry partner): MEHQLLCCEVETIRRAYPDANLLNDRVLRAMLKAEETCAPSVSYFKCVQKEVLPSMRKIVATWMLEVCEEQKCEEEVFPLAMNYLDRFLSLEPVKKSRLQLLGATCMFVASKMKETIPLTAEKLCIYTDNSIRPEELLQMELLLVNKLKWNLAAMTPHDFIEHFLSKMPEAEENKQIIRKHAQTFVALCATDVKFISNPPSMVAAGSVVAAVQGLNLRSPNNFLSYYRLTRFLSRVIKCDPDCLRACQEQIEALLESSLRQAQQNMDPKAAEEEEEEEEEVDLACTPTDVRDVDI
Sequence of CDK4 (Q16531 2-1140 limits assumed): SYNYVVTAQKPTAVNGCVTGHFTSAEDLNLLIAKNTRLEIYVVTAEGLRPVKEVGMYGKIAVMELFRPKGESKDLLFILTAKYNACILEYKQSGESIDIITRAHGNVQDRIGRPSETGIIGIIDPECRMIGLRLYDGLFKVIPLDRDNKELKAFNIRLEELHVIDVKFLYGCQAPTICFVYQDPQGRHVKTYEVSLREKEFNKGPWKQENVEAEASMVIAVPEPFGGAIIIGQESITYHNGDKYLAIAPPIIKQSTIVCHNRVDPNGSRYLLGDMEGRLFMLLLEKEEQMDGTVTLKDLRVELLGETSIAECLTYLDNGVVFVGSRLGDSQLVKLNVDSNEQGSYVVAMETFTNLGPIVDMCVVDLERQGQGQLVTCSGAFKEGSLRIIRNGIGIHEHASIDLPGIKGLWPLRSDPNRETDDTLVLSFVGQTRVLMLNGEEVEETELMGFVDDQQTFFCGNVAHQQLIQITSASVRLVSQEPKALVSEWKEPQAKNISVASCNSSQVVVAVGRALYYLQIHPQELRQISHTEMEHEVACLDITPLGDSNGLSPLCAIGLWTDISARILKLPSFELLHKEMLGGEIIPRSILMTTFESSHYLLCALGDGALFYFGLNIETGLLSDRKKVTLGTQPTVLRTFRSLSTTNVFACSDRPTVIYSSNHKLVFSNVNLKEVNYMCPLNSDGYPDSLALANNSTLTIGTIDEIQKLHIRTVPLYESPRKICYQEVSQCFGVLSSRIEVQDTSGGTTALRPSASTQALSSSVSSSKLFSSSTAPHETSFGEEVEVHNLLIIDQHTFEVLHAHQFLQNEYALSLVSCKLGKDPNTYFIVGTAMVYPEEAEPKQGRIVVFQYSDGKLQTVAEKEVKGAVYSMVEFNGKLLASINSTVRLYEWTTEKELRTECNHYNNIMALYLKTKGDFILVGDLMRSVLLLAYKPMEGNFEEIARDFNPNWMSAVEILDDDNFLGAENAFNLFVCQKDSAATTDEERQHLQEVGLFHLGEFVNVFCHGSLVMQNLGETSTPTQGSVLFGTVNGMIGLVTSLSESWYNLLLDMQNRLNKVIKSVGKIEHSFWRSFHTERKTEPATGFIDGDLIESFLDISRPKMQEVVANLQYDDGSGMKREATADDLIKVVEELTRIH

Consider `CNc1ccc(C(=O)Nc2ccc(N(C)C)nn2)c(NCCC2CC(NC(=O)CN3CCN(c4ccc(Nc5ncc6c(C)c(C(C)=O)c(=O)n(C7CCCC7)c6n5)nc4)CC3)C2)n1` (stereo not drawn) [CPD-41, 2-((2-(3-(2-(4-(6-((6-Acetyl-8-cyclopentyl-5-methyl-7-oxo-7,8-dihydropyrido[2,3-d]pyrimidin-2-yl)amino)pyridin-3-yl)piperazin-1-yl)acetamido)cyclobutyl)ethyl)amino)-N-(6-(dimethylamino)pyridazin-3-yl)-6-(methylamino)nicotinamide], for which the inhibition at 0.04 µM was in the range of 30 to 50% and the inhibition at 0.2 µM fell in the range of 50 to 80%.
Consider `CNc1ccc(C(=O)Nc2ccc(N(C)C)nn2)c(N2CCC(CCNC(=O)CN3CCN(c4ccc(Nc5ncc6c(C)c(C(C)=O)c(=O)n(C7CCCC7)c6n5)nc4)CC3)CC2)n1` [CPD-42, 2-(4-(2-(2-(4-(6-((6-Acetyl-8-cyclopentyl-5-methyl-7-oxo-7,8-dihydropyrido[2,3-d]pyrimidin-2-yl)amino)pyridin-3-yl)piperazin-1-yl)acetamido)ethyl)piperidin-1-yl)-N-(6-(dimethylamino)pyridazin-3-yl)-6-(methylamino)nicotinamide], for which the inhibition at 0.04 µM was under 30% and the inhibition at 0.2 µM was under 30%.
`CNc1ccc(C(=O)Nc2ccc(N(C)C)nn2)c(N[C@H]2CC[C@H](CNC(=O)CN3CCN(c4ccc(Nc5ncc6c(C)c(C(C)=O)c(=O)n(C7CCCC7)c6n5)nc4)CC3)CC2)n1` [CPD-43, 2-((trans-4-((2-(4-(6-((6-Acetyl-8-cyclopentyl-5-methyl-7-oxo-7,8-dihydropyrido[2,3-d]pyrimidin-2-yl)amino)pyridin-3-yl)piperazin-1-yl)acetamido)methyl)cyclohexyl)amino)-N-(6-(dimethylamino)pyridazin-3-yl)-6-(methylamino)nicotinamide]: the inhibition at 0.04 µM was under 30% and the inhibition at 0.2 µM lay within 50 to 80%.
Consider `CC(=O)c1c(C)c2cnc(Nc3ccc(N4CCN(CC(=O)NCCCCCNc5nc(C6CC6)ccc5C(=O)Nc5ccc(C)c(C6CC6)n5)CC4)cn3)nc2n(C2CCCC2)c1=O` [CPD-44, 2-((5-(2-(4-(6-((6-Acetyl-8-cyclopentyl-5-methyl-7-oxo-7,8-dihydropyrido[2,3-d]pyrimidin-2-yl)amino)pyridin-3-yl)piperazin-1-yl)acetamido)pentyl)amino)-6-cyclopropyl-N-(6-cyclopropyl-5-methylpyridin-2-yl)nicotinamide], for which the inhibition at 0.04 µM was under 30% and the inhibition at 0.2 µM lay in the range of 30 to 50%.
Molecule `CC(=O)c1c(C)c2cnc(Nc3ccc(N4CCN(CC(=O)NCCC5CC(Nc6nc(C7CC7)ccc6C(=O)Nc6ccc(C)c(C7CC7)n6)C5)CC4)cn3)nc2n(C2CCCC2)c1=O` (stereo not drawn) [CPD-45, 2-((3-(2-(2-(4-(6-((6-Acetyl-8-cyclopentyl-5-methyl-7-oxo-7,8-dihydropyrido[2,3-d]pyrimidin-2-yl)amino)pyridin-3-yl)piperazin-1-yl)acetamido)ethyl)cyclobutyl)amino)-6-cyclopropyl-N-(6-cyclopropyl-5-methylpyridin-2-yl)nicotinamide] showed an inhibition at 0.04 µM of under 30% and an inhibition at 0.2 µM of under 30%.
For `CNc1ccc(C(=O)Nc2ccc(N(C)C)cc2)c(NCCCCCNC(=O)CN2CCN(c3ccc(Nc4ncc5c(C)c(C(C)=O)c(=O)n(C6CCCC6)c5n4)nc3)CC2)n1` [CPD-46, 2-((5-(2-(4-(6-((6-Acetyl-8-cyclopentyl-5-methyl-7-oxo-7,8-dihydropyrido[2,3-d]pyrimidin-2-yl)amino)pyridin-3-yl)piperazin-1-yl)acetamido)pentyl)amino)-N-(4-(dimethylamino)phenyl)-6-(methylamino)nicotinamide], the inhibition at 0.04 µM was under 30% and the inhibition at 0.2 µM is under 30%.
Consider `CNc1ccc(C(=O)Nc2ccc(N(C)C)cn2)c(NCCCCCNC(=O)CN2CCN(c3ccc(Nc4ncc5c(C)c(C(C)=O)c(=O)n(C6CCCC6)c5n4)nc3)CC2)n1` [CPD-47, 2-((5-(2-(4-(6-((6-Acetyl-8-cyclopentyl-5-methyl-7-oxo-7,8-dihydropyrido[2,3-d]pyrimidin-2-yl)amino)pyridin-3-yl)piperazin-1-yl)acetamido)pentyl)amino)-N-(5-(dimethylamino)pyridin-2-yl)-6-(methylamino)nicotinamide], for which the inhibition at 0.04 µM is under 30% and the inhibition at 0.2 µM was 50 to 80%.
With `CNc1ccc(C(=O)NC2CCC(N(C)C)CC2)c(NCCCCCNC(=O)CN2CCN(c3ccc(Nc4ncc5c(C)c(C(C)=O)c(=O)n(C6CCCC6)c5n4)nc3)CC2)n1` (stereo not drawn) [CPD-48, 2-((5-(2-(4-(6-((6-Acetyl-8-cyclopentyl-5-methyl-7-oxo-7,8-dihydropyrido[2,3-d]pyrimidin-2-yl)amino)pyridin-3-yl)piperazin-1-yl)acetamido)pentyl)amino)-N-(4-(dimethylamino)cyclohexyl)-6-(methylamino)nicotinamide], the inhibition at 0.04 µM was under 30% and the inhibition at 0.2 µM was under 30%.
In turn, `CNc1ccc(C(=O)Nc2ccn(C)n2)c(NCCCCCNC(=O)CN2CCN(c3ccc(Nc4ncc5c(C)c(C(C)=O)c(=O)n(C6CCCC6)c5n4)nc3)CC2)n1` [CPD-49, 2-((5-(2-(4-(6-((6-Acetyl-8-cyclopentyl-5-methyl-7-oxo-7,8-dihydropyrido[2,3-d]pyrimidin-2-yl)amino)pyridin-3-yl)piperazin-1-yl)acetamido)pentyl)amino)-N-(1-methyl-1H-pyrazol-3-yl)-6-(methylamino)nicotinamide] registered an inhibition at 0.04 µM of 50 to 80% and an inhibition at 0.2 µM of 50 to 80%.
The molecule `CNc1ccc(C(=O)Nc2cc(C)cc(C3CC3)n2)c(NCCCCCNC(=O)CN2CCN(c3ccc(Nc4ncc5c(C)c(C(C)=O)c(=O)n(C6CCCC6)c5n4)nc3)CC2)n1` [CPD-53, 2-((5-(2-(4-(6-((6-Acetyl-8-cyclopentyl-5-methyl-7-oxo-7,8-dihydropyrido[2,3-d]pyrimidin-2-yl)amino)pyridin-3-yl)piperazin-1-yl)acetamido)pentyl)amino)-N-(6-cyclopropyl-4-methylpyridin-2-yl)-6-(methylamino)nicotinamide] yielded an inhibition at 0.04 µM of 50 to 80% and an inhibition at 0.2 µM of 50 to 80%.
In turn, `CNc1ccc(C(=O)NC2CCC(N(C)C)C2)c(NCCCCCNC(=O)CN2CCN(c3ccc(Nc4ncc5c(C)c(C(C)=O)c(=O)n(C6CCCC6)c5n4)nc3)CC2)n1` (stereo not drawn) [CPD-55, 2-((5-(2-(4-(6-((6-Acetyl-8-cyclopentyl-5-methyl-7-oxo-7,8-dihydropyrido[2,3-d]pyrimidin-2-yl)amino)pyridin-3-yl)piperazin-1-yl)acetamido)pentyl)amino)-N-(3-(dimethylamino)cyclopentyl)-6-(methylamino)nicotinamide] had an inhibition at 0.04 µM of under 30% and an inhibition at 0.2 µM of under 30%.
`CNc1ccc(C(=O)Nc2nc(C3CC3)c(C)s2)c(NCCCCCNC(=O)CN2CCN(c3ccc(Nc4ncc5c(C)c(C(C)=O)c(=O)n(C6CCCC6)c5n4)nc3)CC2)n1` [CPD-56, 2-((5-(2-(4-(6-((6-Acetyl-8-cyclopentyl-5-methyl-7-oxo-7,8-dihydropyrido[2,3-d]pyrimidin-2-yl)amino)pyridin-3-yl)piperazin-1-yl)acetamido)pentyl)amino)-N-(4-cyclopropyl-5-methylthiazol-2-yl)-6-(methylamino)nicotinamide] gave an inhibition at 0.04 µM of 50 to 80% and an inhibition at 0.2 µM of 50 to 80%.

As a reminder, the inhibition is the change of the read-out against control, counted positive when it falls. Low readings indicate a weak effect, high ones a strong effect.
